{
  "source": "patent US20220133753A1",
  "about": "“COMPOSITIONS AND METHODS USEFUL FOR TREATING DISEASES CHARACTERIZED BY INSUFFICIENT PANTOTHENATE KINASE ACTIVITY” (Comet Therapeutics, Inc., priority 2016, published 2022)",
  "key": {"[1]": {"tested_on": "COASY down-regulated HEK293 cells", "assay": "Knock-down of COASY by siRNA in HEK293 cells with CoA", "format": "cell-based, human", "conditions": "CoA added to the medium", "protocol": "Knock-down of COASY by siRNA in mammalian HEK293 cells: HEK293 were maintained as described above. HEK293 were transfected with 200 nM COASY siRNA (GE Healthcare human COASY 80347 smartpool Cat no: M-006751-00-0010) or non-targeting siRNA (GE Healthcare Cat no: D-001206-13-20) using lipofectamine 2000 (Invitrogen) 4 h after transfection CoA was added in a final concentration of 25 uM. Cells were cultured for 3 days and then harvested for HPLC analysis of total CoA and PPanSH levels and Western blot (histone acetylation) as described below.\nWestern blot analysis and Antibodies: For Western blot analysis, cells were collected and washed with phosphate buffer saline (PBS), followed by centrifugation. The cells were lysed and sonicated in 1X Laemmli Sample Buffer and boiled for 5 min with 5% β-mercaptoethanol (Sigma). Protein content was determined using DC protein assay (BioRad). Equal amounts of protein were loaded on a 10 or 12.5% SDS-PAGE gel, transferred onto PVDF membranes and blocked with 5% milk in PBS/0.1% Tween, followed by overnight incubation with primary antibodies. […] Appropriate HRP-conjugated secondary antibodies (Amersham) were used and detection was performed using enhanced chemi-luminescence (Pierce cat nog: 32106) and Amersham hyperfilm (GE Healthcare). Band intensities were quantified with Image-studio software."}, "[2]": {"tested_on": "Drosophila S2 cells", "assay": "HoPan treatment of Drosophila S2 cells in combination with CoA or 4′-phosphopantetheine", "format": "cell-based", "conditions": "HoPan treated S2 cells", "protocol": "HoPan treatment of Drosophila S2 Cell in combination with CoA or 4′-phosphopantetheine treatment: Drosophila Schneider's S2 cells were maintained at standard conditions as explained above. Cells in the exponential phase of growth were used for all the experiments. Different indicated concentrations of CoA or 4′-phosphopantetheine (deuterium labelled PPanSH(D4) or unlabeled PPanSH) were added to S2 cells either in the presence or absence of 0.5 mM HoPan (Zhou Fang Pharm Chemical, China) for 48 h. Similarly, Drosophila S2 cells were treated with different concentrations of PPanSH(D4) at either 25° C. or 4° C. and cells were then harvested at various time points to access transport of PPanSH(D4). Stable isotope labelled PPanSH containing 4 deuterium atoms was purchased from Syncom (Groningen, The Netherlands) as a sodium salt (chemical structure is provided in FIG. 13A). As a read out cell count, intracellular total CoA and PPanSH levels (both labelled and unlabeled levels wherever appropriate) and histone acetylation levels were analyzed as explained below.\n(§1) Drosophila S2 Cell Immunofluorescence Staining: For immunofluorescence Drosophila S2 cells were seeded on Poly-L-Lysine coated (Sigma-Aldrich) glass microscope slides and allowed to settle for 45 min. Cells were fixed with 3.7% formaldehyde (Sigma Aldrich) for 20 min, washed briefly with PBS+0.1% Triton-X-100 (Sigma Aldrich) and permeabilized with PBS+0.2% Triton-X-100 for 20 min. The slides were incubated in primary antibody (rabbit anti-AcLys, Cell Signaling Cat No: 9441, 1:500) to visualize histone acetylation levels in PBS+0.1% Triton-X-100 overnight and after an additional washing step in PBS+0.1% Triton-X-100 they were incubated in secondary goat anti-rabbit-Alexa488 antibody (Molecular Probes) for two hours at room temperature (RT). F-actin was detected with Rhodamin-Phalloidin (20 U/ml)(Invitrogen) and DNA by staining with DAPI (0.2 ug/ml) (Thermo Scientific). Finally the samples were mounted in 80% glycerol and analyzed using a Leica fluorescence microscope with Leica software. Adobe Photoshop and Illustrator (Adobe Systems Incorporated, San Jose, Calif., USA) were used for image assembly."}, "[3]": {"tested_on": "dPANK/fbl RNAi treated Drosophila S2 cells", "assay": "dPANK/fbl RNA interference in Drosophila S2 cells, rescue by CoA or 4′-phosphopantetheine", "format": "cell-based", "conditions": "compound added to the medium", "protocol": "Drosophila S2 Cell Culture, RNA Interference, and CoA and 4′-phosphopantetheine treatment: Drosophila Schneider's S2 cells were maintained at 25° C. in Schneider's Drosophila medium (Invitrogen) supplemented with 10% heat inactivated fetal calf serum (Gibco) and antibiotics (penicillin/streptomycin, Invitrogen) under laboratory conditions. Synthesis of RNAi constructs and RNA interference (dsRNA) treatment was carried out as described previously (Siudeja K et al, EMBO Mol Med 3, 755-766 (2011)). Non-relevant (human gene; hMAZ) dsRNA was used as control. The cells were incubated for 4 days to induce an efficient knock-down. Cells were then subcultured, with or without CoA (Sigma-Aldrich, Cat. No: C4780—which is used for all the experiments wherever stated below) or 4′-phosphopantetheine (PPanSH) at different concentrations and were maintained for additional 3 days until analysis for rescue efficiency of the compounds was performed. The stock solutions of compounds were made in sterile water and stored in −20° C. until use.\nas §1"}},
  "data": [
    {"smiles": "CC(C)(COP(=O)(O)OP(=O)(O)OC[C@H]1O[C@@H](n2cnc3c(N)ncnc32)[C@H](O)[C@@H]1OP(=O)(O)O)[C@@H](O)C(=O)NCCC(=O)NCCS", "note": "[CoA, Coenzyme A]", "values": [
      {"measurement": "rescue of COASY RNAi-induced decrease in intracellular CoA levels", "setting": "[1]", "value": "neither rescued"},
      {"measurement": "intracellular concentration of CoA", "setting": "[2]; compound added to the culture medium, HPLC", "value": "restored the intracellular concentration of CoA"},
      {"measurement": "rescue of HoPan-induced decrease in cell count", "setting": "[2]; compound added to the medium", "value": "rescued"},
      {"measurement": "rescue of HoPan-induced histone acetylation defect", "setting": "[2]; compound added to the medium", "value": "rescued"},
      {"measurement": "intracellular levels of 4′-phosphopantetheine", "setting": "[2]; external supplementation, HPLC", "value": "significantly increased"},
      {"measurement": "cell count of dPANK/fbl RNAi treated S2 cells", "setting": "[3]", "value": "rescued the cell count in a concentration-dependent manner"},
      {"measurement": "histone (protein) acetylation of dPANK/fbl RNAi treated S2 cells", "setting": "[3]; immunofluorescence", "value": "rescued"}
    ]}
  ]
}
